Measured values taken from US20230053540A1, “TREATMENT OF LIVER INJURY” (Massachusetts Institute of Technology, priority 2019, published 2023).

Tested on: hepatocytes
Assay: Seq-Well scRNA-Seq of hepatocytes after APAP overdose (signature scores, DEG vs untreated)
Type: in vivo, mouse
Conditions: APAP vs. UT

SMILES: CC(=O)Nc1ccc(O)cc1 [APAP, acetaminophen]
- Hmgcs2 avg_logFC: 0.3105
- Hmgcs2 pct.1: 0.974
- Hmox1 avg_logFC: 0.3298
- Hmox1 pct.1: 0.108
- Hnf4a avg_logFC: 0.4538
- Hnf4a pct.1: 0.876
- Hp avg_logFC: 0.2604
- Hp pct.1: 0.998
- Hrg avg_logFC: 0.321
- Hrg pct.1: 0.88
- Hsd3b5 avg_logFC: −0.4712
- Hsd3b5 pct.1: 0.367
- Hsd17b13 avg_logFC: 0.4437
- Hsd17b13 pct.1: 0.798
- Hspa5 avg_logFC: 0.4048
- Hspa5 pct.1: 0.971
- Hyou1 avg_logFC: 0.3658
- Hyou1 pct.1: 0.561
- Igfbp4 avg_logFC: 0.3148
- Igfbp4 pct.1: 0.919
- Iigp1 avg_logFC: 0.3448
- Iigp1 pct.1: 0.851
- Il1r1 avg_logFC: 0.3633
- Il1r1 pct.1: 0.39
- Insig1 avg_logFC: 0.2541
- Insig1 pct.1: 0.597
- Itih2 avg_logFC: 0.2682
- Itih2 pct.1: 0.942
- Kif1b avg_logFC: 0.264
- Kif1b pct.1: 0.629
- Krt18 avg_logFC: 0.3307
- Krt18 pct.1: 0.72
- Lars2 avg_logFC: 1.069
- Lars2 pct.1: 0.997
- Lifr avg_logFC: −0.3532
- Lifr pct.1: 0.608
- Lipa avg_logFC: 0.2577
- Lipa pct.1: 0.73
- Lpgat1 avg_logFC: 0.3539
- Lpgat1 pct.1: 0.693
- Lpin2 avg_logFC: 0.3984
- Lpin2 pct.1: 0.79
- Lrg1 avg_logFC: 0.3478
- Lrg1 pct.1: 0.861
- Lrrc58 avg_logFC: 0.2998
- Lrrc58 pct.1: 0.542
- Man2a1 avg_logFC: 0.3404
- Man2a1 pct.1: 0.742
- Mat1a avg_logFC: 0.75
- Mat1a pct.1: 0.983
- Mbnl1 avg_logFC: 0.251
- Mbnl1 pct.1: 0.511
- Mfsd2a avg_logFC: 0.4484
- Mfsd2a pct.1: 0.413
- Mia3 avg_logFC: 0.2557
- Mia3 pct.1: 0.749
- Mt1 avg_logFC: 0.8909
- Mt1 pct.1: 0.701
- Mt2 avg_logFC: 0.6697
- Mt2 pct.1: 0.518
- Mup3 avg_logFC: −0.5425
- Mup3 pct.1: 0.999
- Mup4 avg_logFC: −1.001
- Mup4 pct.1: 0.716
- Mup5 avg_logFC: −1.342
- Mup5 pct.1: 0.541
- Mup6 avg_logFC: −1.882
- Mup6 pct.1: 0.804
- Mup7 avg_logFC: −0.6015
- Mup7 pct.1: 0.937
- Mup8 avg_logFC: −0.7268
- Mup8 pct.1: 0.13
- Mup9 avg_logFC: −1.914
- Mup9 pct.1: 0.594
- Mup11 avg_logFC: −1.728
- Mup11 pct.1: 0.84
- Mup12 avg_logFC: −0.3713
- Mup12 pct.1: 0.665
- Mup15 avg_logFC: −1.26
- Mup15 pct.1: 0.166
- Mup16 avg_logFC: −1.125
- Mup16 pct.1: 0.594
- Mup17 avg_logFC: −2.017
- Mup17 pct.1: 0.947
- Mup18 avg_logFC: −1.639
- Mup18 pct.1: 0.838
- Mup19 avg_logFC: −1.786
- Mup19 pct.1: 0.916
- Mup21 avg_logFC: −0.8723
- Mup21 pct.1: 0.702
- Myh9 avg_logFC: 0.4507
- Myh9 pct.1: 0.531
- Ndrg2 avg_logFC: 0.2845
- Ndrg2 pct.1: 0.956
- Ndufa4 avg_logFC: −0.2617
- Ndufa4 pct.1: 0.851
- Ndufs6 avg_logFC: −0.2721
- Ndufs6 pct.1: 0.678
- Nudt7 avg_logFC: −0.6192
- Nudt7 pct.1: 0.691
- P4hb avg_logFC: 0.2586
- P4hb pct.1: 0.958
- Pabpc1 avg_logFC: 0.3735
- Pabpc1 pct.1: 0.75
- Picalm avg_logFC: 0.2666
- Picalm pct.1: 0.558
- Pigr avg_logFC: 0.2747
- Pigr pct.1: 0.952
- Plin2 avg_logFC: 0.3714
- Plin2 pct.1: 0.799
- Prdx1 avg_logFC: −0.3499
- Prdx1 pct.1: 0.878
- Prdx4 avg_logFC: −0.2905
- Prdx4 pct.1: 0.55
- Pten avg_logFC: 0.265
- Pten pct.1: 0.645
- Ranbp2 avg_logFC: 0.2567
- Ranbp2 pct.1: 0.555
- Reep6 avg_logFC: 0.2892
- Reep6 pct.1: 0.837
- Retsat avg_logFC: 0.4126
- Retsat pct.1: 0.87
- Rora avg_logFC: 0.2853
- Rora pct.1: 0.547
- Rpl36al avg_logFC: −0.2702
- Rpl36al pct.1: 0.495
- Rps15 avg_logFC: −0.2722
- Rps15 pct.1: 0.49
- S100a9 avg_logFC: 0.3176
- S100a9 pct.1: 0.058
- Sdhc avg_logFC: 0.2605
- Sdhc pct.1: 0.738
- Sec61a1 avg_logFC: 0.2648
- Sec61a1 pct.1: 0.642
- Selenbp2 avg_logFC: −0.8304
- Selenbp2 pct.1: 0.751
- Sephs2 avg_logFC: 0.4286
- Sephs2 pct.1: 0.865
- Sepp1 avg_logFC: 0.3455
- Sepp1 pct.1: 1
- Serpina1a avg_logFC: −0.3347
- Serpina1a pct.1: 0.96
- Serpina1e avg_logFC: −0.4681
- Serpina1e pct.1: 0.99
- Serpina3m avg_logFC: 0.4597
- Serpina3m pct.1: 0.836
- Serpina3n avg_logFC: 0.4496
- Serpina3n pct.1: 0.76
- Serpina12 avg_logFC: −0.279
- Serpina12 pct.1: 0.362
- Sfxn1 avg_logFC: 0.2624
- Sfxn1 pct.1: 0.636
- Sh3glb1 avg_logFC: 0.2521
- Sh3glb1 pct.1: 0.47
- Slc4a4 avg_logFC: 0.2827
- Slc4a4 pct.1: 0.558
- Slc25a47 avg_logFC: 0.3096
- Slc25a47 pct.1: 0.927
- Slc39a14 avg_logFC: 0.356
- Slc39a14 pct.1: 0.552
- Slc40a1 avg_logFC: 0.2768
- Slc40a1 pct.1: 0.517
- Slco1a4 avg_logFC: 0.3826
- Slco1a4 pct.1: 0.484
- Snord118 avg_logFC: 0.4707
- Snord118 pct.1: 0.531
- Srxn1 avg_logFC: 0.564
- Srxn1 pct.1: 0.369
- Ssr3 avg_logFC: 0.2529
- Ssr3 pct.1: 0.732
- St3gal5 avg_logFC: 0.3876
- St3gal5 pct.1: 0.695
- Sult1a1 avg_logFC: 0.3652
- Sult1a1 pct.1: 0.799
- Tgoln1 avg_logFC: 0.2677
- Tgoln1 pct.1: 0.713
- Tm4sf4 avg_logFC: 0.276
- Tm4sf4 pct.1: 0.493
- Tmed5 avg_logFC: 0.3027
- Tmed5 pct.1: 0.689
- Tmem205 avg_logFC: −0.2953
- Tmem205 pct.1: 0.877
- Tnfrsf12a avg_logFC: 0.2588
- Tnfrsf12a pct.1: 0.193
- Trp53inp1 avg_logFC: 0.3977
- Trp53inp1 pct.1: 0.526
- Ttpa avg_logFC: 0.3932
- Ttpa pct.1: 0.916
- Txnrd1 pct.1: 0.64
- Uroc1 avg_logFC: 0.3135
- Uroc1 pct.1: 0.74
- Usp9x avg_logFC: 0.2541
- Usp9x pct.1: 0.503
- Wbp1l avg_logFC: 0.3662
- Wbp1l pct.1: 0.768
- Zfp91 avg_logFC: 0.2619
- Zfp91 pct.1: 0.666
- mmu-mir-6240 avg_logFC: 0.3395
- mmu-mir-6240 pct.1: 0.22
- mt-Co1 avg_logFC: −0.9219
- mt-Co1 pct.1: 0.977
- mt-Co2 avg_logFC: −1.078
